Values quoted from earlier work, collected in US7662581B1, “Eg5 co-crystals” (Novartis Vaccines and Diagnostics, Inc., priority 2003, dated 2010).

Assays:
HsEg5 = details: protein level
[1] = test system: DAN-G pancreatic carcinoma cells

Question: For CC1=C(/C=C/C(C)=C/C=C/C(C)=C/C(=O)O)C(C)(C)CCC1 [ATRA, all trans-retinoic acid], which HsEg5 expression (HsEg5) is on record?
Answer: Its HsEg5 expression is “reduces HsEg5 expression on protein level”.

Question: What about the growth inhibition [1] of the same molecule?
Answer: The growth inhibition was “significant growth inhibition”.
